From patent US7723329B2, “Substituted-3-sulfonylindazole derivatives as 5-hydroxytryptamine-6 ligands” (Wyeth LLC, priority 2005, dated 2010)
Structures can show the parent of a compound that is named as a salt.

target: T1, human cloned 5-HT6 receptors (Homo sapiens, UniProt P50406); experiment: 5-HT6 binding affinity, [3H]-LSD displacement; conditions: membranes of Hela cells expressing human cloned 5-HT6 receptors; [3H]-LSD 3.0 nM; 120 minutes at room temperature
T1 construct: expressed in transfected cells; host or cells: HeLa cells
T1 sequence (P50406 whole entry): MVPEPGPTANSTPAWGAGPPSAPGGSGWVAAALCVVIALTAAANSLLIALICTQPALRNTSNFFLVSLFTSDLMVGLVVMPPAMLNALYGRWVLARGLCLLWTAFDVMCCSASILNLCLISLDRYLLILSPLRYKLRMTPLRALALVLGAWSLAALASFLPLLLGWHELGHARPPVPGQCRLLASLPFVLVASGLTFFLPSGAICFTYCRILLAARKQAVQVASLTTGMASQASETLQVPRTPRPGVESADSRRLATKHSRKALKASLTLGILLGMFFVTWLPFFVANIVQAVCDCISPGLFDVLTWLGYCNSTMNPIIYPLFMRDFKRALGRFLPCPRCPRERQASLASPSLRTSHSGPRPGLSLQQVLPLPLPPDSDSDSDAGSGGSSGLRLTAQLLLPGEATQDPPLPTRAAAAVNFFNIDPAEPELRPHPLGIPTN

Ki | Compound
0.01 to 10 nM | Cl.NCCc1cccc2c(S(=O)(=O)c3ccccc3)n[nH]c12 [Example 174, {2-[3-(Phenylsulfonyl)-1H-indazol-7-yl]ethyl}amine Hydrochloride]
0.01 to 10 nM | CNCCc1ccc2[nH]nc(S(=O)(=O)c3ccccc3)c2c1 [Example 175, N-Methyl-N-{2-[3-(phenylsulfonyl)-1H-indazol-5-yl]ethyl}amine]
0.01 to 10 nM | CNCCCc1ccc2[nH]nc(S(=O)(=O)c3cccc4ccccc34)c2c1 [Example 183]
0.01 to 10 nM | CC(C)NCCCc1ccc2[nH]nc(S(=O)(=O)c3cccc4ccccc34)c2c1 [Example 185]
0.01 to 10 nM | CCN(C)CCCc1ccc2[nH]nc(S(=O)(=O)c3cccc4ccccc34)c2c1 [Example 186]
0.01 to 10 nM | O=S(=O)(c1cccc2ccccc12)c1n[nH]c2ccc(CCCN3CCCC3)cc12 [Example 187]
0.01 to 10 nM | NCCCc1ccc2[nH]nc(S(=O)(=O)c3cccc4ccccc34)c2c1 [Example 188, {3-[3-(Naphthylylsulfonyl)-1H-indazol-5-yl]propyl}amine]
0.01 to 10 nM | CN(C)CCCCc1ccc2[nH]nc(S(=O)(=O)c3cccc4ccccc34)c2c1 [Example 190]
11 to 25 nM | C[C@H]1CN(Cc2ccc3[nH]nc(S(=O)(=O)c4cccc5ccccc45)c3c2)CCN1 [Example 199]
0.01 to 10 nM | C[C@@H]1CN(Cc2ccc3[nH]nc(S(=O)(=O)c4cccc5ccccc45)c3c2)CCN1 [Example 200]
0.01 to 10 nM | N[C@@H]1CCN(Cc2ccc3[nH]nc(S(=O)(=O)c4cccc5ccccc45)c3c2)C1 [Example 201]
> 45 nM | O=C(c1ccc2[nH]nc(S(=O)(=O)c3cccc4ccccc34)c2c1)N1CCNCC1 [Example 202, 3-(1-Naphthylsulfonyl)-5-(piperazin-1 ylcarbonyl)-1H-indazole]

test system: not given; experiment: not given; conditions: not given

melting point | Compound
> 200 °C | CN(C)CCOCc1ccc2[nH]nc(S(=O)(=O)c3cccc4ccccc34)c2c1 (as salt: HCl) [Example 156, N,N-Dimethyl-2-{[3-(1-naphthylsulfonyl)-1H-indazol-5-yl]methoxy}ethanamine]
> 200 °C | CN1CCN(Cc2ccc3[nH]nc(S(=O)(=O)c4cccc5ccccc45)c3c2)CC1 (as salt: HCl) [Example 196]
> 200 °C | CC1CN(Cc2ccc3[nH]nc(S(=O)(=O)c4cccc5ccccc45)c3c2)CCN1 (stereo not drawn) (as salt: HCl) [Example 197]
> 200 °C | CC1CN(Cc2ccc3[nH]nc(S(=O)(=O)c4cccc5ccccc45)c3c2)CC(C)N1 (stereo not drawn) (as salt: HCl) [Example 198]
178 to 181 °C | C[C@H]1CN(Cc2ccc3[nH]nc(S(=O)(=O)c4cccc5ccccc45)c3c2)CCN1 (as salt: HCl) [Example 199]
179 to 181 °C | C[C@@H]1CN(Cc2ccc3[nH]nc(S(=O)(=O)c4cccc5ccccc45)c3c2)CCN1 (as salt: HCl) [Example 200]
> 200 °C | N[C@@H]1CCN(Cc2ccc3[nH]nc(S(=O)(=O)c4cccc5ccccc45)c3c2)C1 (as salt: HCl) [Example 201]
249 to 250 °C | O=S(=O)(c1ccccc1)c1n[nH]c2ccc(OCCN3CCCCC3)cc12 (as salt: hydrochloride) [Example 3, 3-Benzenesulfonyl-5-(2-piperidin-1-yl-ethoxy)-1H-indazole]
248 to 250 °C (dec.) | CCNCCOc1ccc2[nH]nc(S(=O)(=O)c3ccccc3)c2c1 (as salt: hydrochloride) [Example 4, [2-(3-Benzenesulfonyl-1H-indazol-5-yloxy)-ethyl]-ethyl-amine]
275 to 277 °C (dec.) | CC(C)NCCOc1ccc2[nH]nc(S(=O)(=O)c3ccccc3)c2c1 (as salt: hydrochloride) [Example 6, [2-(3-Benzenesulfonyl-1H-indazol-5-yloxy)-ethyl]-isopropyl-amine]
271 to 273 °C (dec.) | CCCCNCCOc1ccc2[nH]nc(S(=O)(=O)c3ccccc3)c2c1 (as salt: hydrochloride) [Example 7, [2-(3-Benzenesulfonyl-1H-indazol-5-yloxy)-ethyl]-butyl-amine]
184 to 185 °C (dec.) | O=S(=O)(c1ccccc1)c1n[nH]c2ccc(OCCNC3CC3)cc12 (as salt: hydrochloride) [Example 8, [2-(3-Benzenesulfonyl-1H-indazol-5-yloxy)-ethyl]-cyclopropyl-amine]
255 to 258 °C (dec.) | O=S(=O)(c1ccccc1)c1n[nH]c2ccc(OCCNC3CCCC3)cc12 (as salt: hydrochloride) [Example 9, 3-Benzenesulfonyl-5-(2-cyclopentyl-1-yl-ethoxy)-1H-indazole]
> 300 °C | NCCOc1ccc2[nH]nc(S(=O)(=O)c3ccccc3)c2c1 (as salt: hydrochloride) [Example 13, 2-(3-Benzenesulfonyl-1H-indazol-5-yloxy)-ethylamine]
272 to 274 °C (dec.) | CNCCOc1ccc2c(c1)c(S(=O)(=O)c1cccc3ccccc13)nn2C (as salt: hydrochloride) [Example 40, Methyl-{2-[1-methyl-3-(naphthalene-1-sulfonyl)-1H-indazol-5-yloxy]-ethyl}-amine]
276 to 277 °C (dec.) | CCNCCOc1ccc2c(c1)c(S(=O)(=O)c1cccc3ccccc13)nn2C (as salt: hydrochloride) [Example 44, Ethyl-{2-[1-methyl-3-(naphthalene-1-sulfonyl)-1H-indazol-5-yloxy]-ethyl}-amine]
274 to 276 °C (dec.) | CC(C)NCCOc1ccc2c(c1)c(S(=O)(=O)c1cccc3ccccc13)nn2C (as salt: hydrochloride) [Example 45, Isopropyl-{2-[1-methyl-3-(naphthalene-1-sulfonyl)-1H-indazol-5-yloxy]-ethyl}-amine]
206 to 208 °C | CC(C)NCCOc1ccc2c(c1)c(S(=O)(=O)c1cccc3ccccc13)nn2Cc1cccc(Cl)c1 (as salt: hydrochloride) [Example 57, {2-[1-(3-Chloro-benzyl)-3-(naphthalene-1-sulfonyl)-1H-indazol-5-yloxy]-ethyl}-isopropyl-amine]
> 200 °C | CN(C)CCN(C)Cc1ccc2[nH]nc(S(=O)(=O)c3cccc4ccccc34)c2c1 (as salt: hydrochloride) [Example 153, N,N, N′-Trimethyl-N′-{[3-(1-naphthylsulfonyl)-1H-indazol-5-yl]methyl}ethane-1,2-diamine]
> 200 °C | O=S(=O)(c1cccc2ccccc12)c1n[nH]c2ccc(CN[C@H]3CCNC3)cc12 (as salt: hydrochloride) [Example 154, (3S)—N-{([3-(1-Naphthylsulfonyl)-1H-indazol-5-yl]methyl}pyrrolidin-3-amine Hydrochloride]

melting point | Compound
> 200 °C | NCCNCc1ccc2[nH]nc(S(=O)(=O)c3cccc4ccccc34)c2c1 (as salt: hydrochloride) [Example 155, N{[3-(1-Naphthylsulfonyl)-1H-indazol-5yl]methyl}ethane-1.2-diamine]
76 to 80 °C | CN(C)CCc1cccc2c(S(=O)(=O)c3ccccc3)n[nH]c12 (as salt: hydrochloride) [Example 171, N,N-Dimethyl-N-{2-[3-(phenylsulfonyl)-1H-indazol-7-yl]ethyl}amine hydrochloride]
115 to 117 °C | O=S(=O)(c1ccccc1)c1n[nH]c2c(CCNC3CC3)cccc12 (as salt: hydrochloride) [Example 172, N-{2-[3-(phenylsulfonyl)-1H-indazol-7-yl]ethyl}cyclopropanamine hydrochloride]
108 to 110 °C | CN(C)CCc1ccc2[nH]nc(S(=O)(=O)c3ccccc3)c2c1 (as salt: hydrochloride) [Example 176, N,N-Dimethyl-N-{2-[3-(phenylsulfonyl)-1H-indazol-5-yl]ethyl}amine hydrochloride]
120 to 125 °C | NCCCCc1ccc2[nH]nc(S(=O)(=O)c3ccccc3)c2c1 (as salt: hydrochloride) [Example 181, {4-[3-(Phenylsulfonyl)-1H-indazol-5-yl]butyl}amine hydrochloride]
247 to 248 °C | CN(C)CCCc1ccc2[nH]nc(S(=O)(=O)c3cccc4ccccc34)c2c1 (as salt: hydrochloride) [Example 182, N,N-Dimethyl-N-{3-[3-(naphthylsulfonyl)-1H-indazol-5-yl]propyl}amine hydrochloride]
> 200 °C | O=S(=O)(c1cccc2ccccc12)c1n[nH]c2ccc(CN3CCNCC3)cc12 (as salt: hydrochloride) [Example 195, 3-(1-Naphthylsulfonyl)-5-(piperazin-1-ylmethyl)-1H-indazole]
> 200 °C | O=C(c1ccc2[nH]nc(S(=O)(=O)c3cccc4ccccc34)c2c1)N1CCNCC1 (as salt: hydrochloride) [Example 202, 3-(1-Naphthylsulfonyl)-5-(piperazin-1 ylcarbonyl)-1H-indazole]
75 to 80 °C | CN(C)CCCc1ccc2[nH]nc(S(=O)(=O)c3ccccc3)c2c1 (as salt: trifluoroacetate) [Example 177, N,N-Dimethyl-N-{3-[3-(phenylsulfonyl)-1H-indazol-5-yl]propyl}amine trifluoroacetate]
169 to 171 °C | CC(C)NCCCc1ccc2[nH]nc(S(=O)(=O)c3ccccc3)c2c1 (as salt: trifluoroacetate) [Example 179, N-Isopropyl-N-{3-[3-(phenylsulfonyl)-1H-indazol-5-yl]propyl}amine trifluoroacetate]
92 to 94 °C | NCCCc1ccc2[nH]nc(S(=O)(=O)c3ccccc3)c2c1 (as salt: trifluoroacetate) [Example 180, {3-[3-(Phenylsulfonyl)-1H-indazol-5-yl]propyl}amine trifluoroacetate]
157 to 160 °C | Cl.NCCc1cccc2c(S(=O)(=O)c3ccccc3)n[nH]c12 [Example 174, {2-[3-(Phenylsulfonyl)-1H-indazol-7-yl]ethyl}amine Hydrochloride]
186 to 188 °C | CNCCc1ccc2[nH]nc(S(=O)(=O)c3ccccc3)c2c1 [Example 175, N-Methyl-N-{2-[3-(phenylsulfonyl)-1H-indazol-5-yl]ethyl}amine]
155 to 160 °C | CNCCCc1ccc2[nH]nc(S(=O)(=O)c3cccc4ccccc34)c2c1 [Example 183]
160 to 163 °C | CC(C)NCCCc1ccc2[nH]nc(S(=O)(=O)c3cccc4ccccc34)c2c1 [Example 185]
205 to 207 °C | CCN(C)CCCc1ccc2[nH]nc(S(=O)(=O)c3cccc4ccccc34)c2c1 [Example 186]
135 to 138 °C | O=S(=O)(c1cccc2ccccc12)c1n[nH]c2ccc(CCCN3CCCC3)cc12 [Example 187]
92 to 94 °C | NCCCc1ccc2[nH]nc(S(=O)(=O)c3cccc4ccccc34)c2c1 [Example 188, {3-[3-(Naphthylylsulfonyl)-1H-indazol-5-yl]propyl}amine]
232 to 233 °C | CN(C)CCCCc1ccc2[nH]nc(S(=O)(=O)c3cccc4ccccc34)c2c1 [Example 190]
